Legend:
[1] = xn = mol fraction of the nth substance listed; settings: 100 kPa, Liquid, Vibrating tube method
[2] = mn = molality of the nth substance listed, in mol/kg; settings: 100 kPa, Liquid, Capillary tube (Ostwald / Ubbelohde) method

CC(C)(CO)[C@@H](O)C(=O)NCCCO [d-Panthenol] + O
Settings	mass density, 293.15 K [kg/m3]	mass density, 298.15 K [kg/m3]	mass density, 303.15 K [kg/m3]	mass density, 308.15 K [kg/m3]	mass density, 313.15 K [kg/m3]	viscosity, 293.15 K [mPa·s]	viscosity, 298.15 K [mPa·s]	viscosity, 303.15 K [mPa·s]	viscosity, 308.15 K [mPa·s]	viscosity, 313.15 K [mPa·s]
[1], x1 = 0.0036	1004.95	1003.69	1002.18	1000.46	998.5	–	–	–	–	–
[1], x1 = 0.0054	1008.18	1006.88	1005.33	1003.56	1001.53	–	–	–	–	–
[1], x1 = 0.0071	1011.3	1009.95	1008.35	1006.55	1004.49	–	–	–	–	–
[1], x1 = 0.0089	1014.36	1012.97	1011.34	1009.5	1007.4	–	–	–	–	–
[1], x1 = 0.0107	1017.42	1016	1014.32	1012.45	1010.32	–	–	–	–	–
[1], x1 = 0.0124	1020.22	1018.76	1017.07	1015.14	1012.99	–	–	–	–	–
[1], x1 = 0.0142	1023.06	1021.57	1019.84	1017.89	1015.72	–	–	–	–	–
[1], x1 = 0.0248	1039.61	1037.84	1035.87	1033.67	1031.28	–	–	–	–	–
[1], x1 = 0.031	1049.02	1046.69	1044.71	1042.43	1039.83	–	–	–	–	–
[1], x1 = 0.0376	1055.92	1053.81	1051.55	1049.07	1046.45	–	–	–	–	–
[1], x1 = 0.0501	1068.98	1066.6	1064.45	1062.19	1059.96	–	–	–	–	–
[1], x1 = 0.0996	1102.82	1099.84	1096.7	1093.45	1090.55	–	–	–	–	–
[1], x1 = 0.1997	1134.36	1130.9	1127.26	1123.64	1119.93	–	–	–	–	–
[1], x1 = 0.2495	1141.94	1138.2	1134.68	1130.9	1127.21	–	–	–	–	–
[1], x1 = 0.2871	1146.56	1142.9	1139.2	1135.41	1131.52	–	–	–	–	–
[1], x1 = 0.342	1151.05	1147.23	1143.4	1139.69	1135.87	–	–	–	–	–
[1], x1 = 0.4007	1154.55	1150.87	1146.9	1143.02	1139.25	–	–	–	–	–
[1], x1 = 0.4958	1158.52	1154.87	1151.08	1147.04	1143.29	–	–	–	–	–
[1], x1 = 0.5944	1160.64	1157.16	1153.51	1149.72	1145.77	–	–	–	–	–
[1], x1 = 0.708	1162.75	1159.25	1155.76	1152.16	1148.24	–	–	–	–	–
[1], x1 = 0.8067	1163.58	1160.22	1156.74	1153.27	1149.57	–	–	–	–	–
[1], x1 = 0.8753	1164.26	1160.86	1157.46	1153.96	1150.3	–	–	–	–	–
[1], x1 = 1	1165.18	1161.68	1158.27	1154.96	1151.46	–	–	–	–	–
[2], m1 = 0.01	–	–	–	–	–	1.009	0.896	0.803	0.724	0.657
[2], m1 = 0.05	–	–	–	–	–	1.039	0.923	0.826	0.744	0.675
[2], m1 = 0.1001	–	–	–	–	–	1.078	0.957	0.855	0.769	0.697
[2], m1 = 0.1989	–	–	–	–	–	1.159	1.027	0.917	0.822	0.743
[2], m1 = 0.3002	–	–	–	–	–	1.246	1.1	0.98	0.877	0.791
[2], m1 = 0.4006	–	–	–	–	–	1.334	1.173	1.045	0.932	0.839
[2], m1 = 0.4997	–	–	–	–	–	1.421	1.253	1.105	0.99	0.887

Source: the NIST ThermoML archive (doi:10.1016/j.jct.2017.10.014)
